The source of these data is patent US5891890A, “Benzamide derivatives, anti-ulcer drug, and antibacterial drug” (Shiseido Co., Ltd., priority 1997, dated 1999).

A short description of data set [1]: MTT: Cell Damaging and Protecting Effect Test. Format: cell-based, male Japanese White rabbit. Particulars: rabbit, gastric corpus mucosa cells, final concentration 10^-4 M, 37° C., smaller value is better, read-out: MTT: cell damaging rate. An excerpt:
MTT: Cell Damaging and Protecting Effect Test
It is confirmed that there is no toxicity in cell level. Those having a toxicity in cell level are inappropriate as an anti-ulcer drug.
A male Japanese White rabbit (2.5 to 3 kg) was anesthetized to death by Nembutal™ and, immediately thereafter, its stomach was removed. The greater curvature of the stomach was incised so as to remove the stomach contents therefrom. After the mucosal surface was washed with HBSS (Hanks' Balanced Salt Solution), the stomach in ice-cooled HBSS was transferred to a laboratory. […]
The sample compound was dissolved in DMSO so as to attain a concentration of 10^-2 M and then diluted with HBSS containing 2% of Ultrocer G™ so as to attain a final concentration of 10^-4 M. To each group, which 8 wells were used for, 10 μl of MTT reagent was added immediately after 100 μl of the medium in each well was exchanged for same volume of the resulting solution of the sample compound. […] Then, the absorbance (OD: 570 to 630) was measured by a microplate reader. […]
The cell damaging or cell protecting effect of the sample compound at the final concentration of 10^-4 M was expressed as cell damaging rate (%) as follows:
cell damaging rate (%)=(1-(absorbance in sample group/absorbance in control […]

For another data set, the system named is stress ulcer formation. Put plainly: WIS: Restraint and Water Immersion Stress-Induced Ulcer Inhibition Test. Format: in vivo, male Crj:SD or Slc:SD rats. Particulars: 100 mg/kg oral, 10 min before 7 h restraint and water immersion (21° C.), SD rats. The method, then: WIS: Restraint and Water Immersion Stress-Induced Ulcer Inhibition Test
The degree of inhibition of the stress ulcer formation is tested.
Male Crj:SD or Slc:SD rats (6 to 7-week-old) were fasted overnight, but allowed free access to water. Each group has 5 to 8 of these rats. The sample compound was dissolved or suspended in an aqueous solution of 0.3% sodium carboxymethylcellulose or 0.05% Tween 80 and then was orally administered (100 mg/10 ml/kg). To a control group, the vehicle was administered. 10 minutes later, the rats were placed in a stress cage and immersed to the level of xipfoid process in a water bath (21° C.) for 7 hours. At the end of the stress, the rats were sacrificed by inhalation of ether or carbon dioxide. Then, the stomach of each was removed, inflated by injecting 10 ml of 5% formalin neutral buffer solution, and immersed in 1% formalin neutral buffer solution for 30 minutes or more to be fixed. The stomach was incised along the greater curvature and then the length of each erosion in the glandular portion was determined under dissecting microscope. The sum of the length of erosions per stomach was defined as ulcer index (UI).
The effect obtained when 100 mg/kg of the sample compound had been administered was expressed as ulcer formation inhibitory rate (%) as follows:
ulcer formation inhibitory rate (%)=(1-(UI in sample group/UI in control

The subject of data set [2] is isolated gastric fundic gland (histamine-stimulated acid secretion). Kind of data set: CAP: Acid Secretion Inhibition Test In Vitro ([14C]-aminopyrine uptake). The data set is classed as cell-based, male Japanese White rabbit. Particulars: Oryctolagus cuniculus, 40 min, final concentration 10^-5 M, histamine 10^-5 M, 37° C., read-out: CAP: acid secretion inhibitory rate. The method, then: CAP: Acid Secretion Inhibition Test In Vitro
The acid secretion inhibitory activity in a cell level is studied. It can also be used for studying the mechanism of the effect. […]
ii-a) Preparation of isolated gastric fundus gland suspension
First, an isolated gastric fundic gland sample was prepared. Namely, a male Japanese White rabbit (2.5 to 3 kg) was anesthetized to death with Nembutal™ and then the abdomen was incised. Immediately thereafter, the stomach was removed and, after its pyloric and cardiac antrum were severed, incised along its greater curvature into two sheets. […]
Into 70 ml of the nutrient solution containing 1 mg/ml of collagenase, minced mucosal pieces were dispersed and intensely stirred in a conical flask with a stirrer at 37° C. for 40 to 60 minutes. During this period, 100% O2 was sprayed on the nutrient solution surface and the pH was appropriately measured such that it was immediately adjusted to pH 7.4, when the value was therebelow, with a base. […] The number of cells was counted under microscope and adjusted to 1.6×10^6 cells/ml. […]
Then, [^14 C]-aminopyrine uptake test was performed. […] The gland pellet was completely dried as the tube with its lid being opened was kept for one night in a drying oven at 80° C. and then the lid was closed and the weight was determined at room temperature. […]

Structures are written as SMILES.

Regarding `CC(C)Cc1cc(C(=O)NCCCOc2cccc(CN3CCCCC3)c2)ccc1OCc1ccc(F)cc1` [Example 1], the cytotoxicity at 4 h, 100 µM in data set [1] was -3%. Further, in the data set on stress ulcer formation, the “WIS: ulcer formation inhibitory rate” value is 55%. Moreover, the inhibition at 10 µM in data set [2] was found to be 104%.
With `CC(C)=CCC/C(C)=C/COc1ccc(C(=O)NCCCOc2cccc(CN3CCCCC3)c2)cc1` [Example 2], the cytotoxicity at 4 h, 100 µM in data set [1] turned out to be 49%. Besides, in the data set with stress ulcer formation, the “WIS: ulcer formation inhibitory rate” value is recorded as 62%. Further, in data set [2], the inhibition at 10 µM is 102%.
